In BindingDB's records for doi:10.1021/jm801126a (Cornell University, 2009):
pIC50: −log10 of the molar value.

Molecular target: T1, S-adenosylmethionine decarboxylase proenzyme (Homo sapiens, UniProt P17707)
T1 sequence (P17707 whole entry): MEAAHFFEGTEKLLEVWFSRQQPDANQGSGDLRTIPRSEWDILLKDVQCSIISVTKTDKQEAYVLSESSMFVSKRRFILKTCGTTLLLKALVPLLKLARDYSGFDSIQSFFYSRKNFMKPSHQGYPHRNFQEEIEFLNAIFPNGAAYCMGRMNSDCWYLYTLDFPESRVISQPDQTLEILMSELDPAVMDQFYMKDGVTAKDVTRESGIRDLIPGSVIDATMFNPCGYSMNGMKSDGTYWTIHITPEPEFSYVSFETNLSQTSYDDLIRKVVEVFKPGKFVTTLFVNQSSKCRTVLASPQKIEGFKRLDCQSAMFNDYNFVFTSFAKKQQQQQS
Test: AdoMetDC Inhibition Assay
Experimental: The C-terminal his-tagged AdoMetDC was assayed by measuring the release of 14CO2 from S-adenosyl-L-[carboxy-14C]methionine (Amersham Pharmacia Biotech). For determination of the abilities of compounds to inhibit AdoMetDC, the enzyme activity was determined in the presence of no inhibitor and at least five concentrations of each potential inhibitor. The IC50 values were determined from curve fitting to plots of the inhibitor concentration versus the % inhibition of AdoMetDC.

## C[S+](C)C[C@H]1O[C@@H](n2cnc3c(N)ncnc32)[C@H](O)[C@@H]1O [{[(2S,3S,4R,5R)-5-(6-amino-9H-purin-9-yl)-3,4-dihydroxyoxolan-2-yl]methyl}dimethylsulfanium chloride]
  pIC50: 4.82
